The compounds below were run against human PDE10A (Homo sapiens (Human), UniProt Q9Y233) (assay: human PDE10A full length Scintillation Proximity Assay (SPA)). Details: PDE10A full length enzyme, 50 nM cGMP / [3H]-cGMP substrate, 20 minutes at room temperature.
Format: biochemical
Summary of the method: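 Full-length human PDE10A with 50 nM cGMP plus 50 nM [3H]-cGMP in 20 mM HEPES pH 7.5, 10 mM MgCl2, 0.05 mg/ml BSA; 20 min at room temperature. Stopped with yttrium silicate SPA beads in zinc sulphate, scintillation counted; IC50 from concentration range.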

human PDE10A, sequence (Q9Y233 other isoform, or with tags, fused parts or gaps): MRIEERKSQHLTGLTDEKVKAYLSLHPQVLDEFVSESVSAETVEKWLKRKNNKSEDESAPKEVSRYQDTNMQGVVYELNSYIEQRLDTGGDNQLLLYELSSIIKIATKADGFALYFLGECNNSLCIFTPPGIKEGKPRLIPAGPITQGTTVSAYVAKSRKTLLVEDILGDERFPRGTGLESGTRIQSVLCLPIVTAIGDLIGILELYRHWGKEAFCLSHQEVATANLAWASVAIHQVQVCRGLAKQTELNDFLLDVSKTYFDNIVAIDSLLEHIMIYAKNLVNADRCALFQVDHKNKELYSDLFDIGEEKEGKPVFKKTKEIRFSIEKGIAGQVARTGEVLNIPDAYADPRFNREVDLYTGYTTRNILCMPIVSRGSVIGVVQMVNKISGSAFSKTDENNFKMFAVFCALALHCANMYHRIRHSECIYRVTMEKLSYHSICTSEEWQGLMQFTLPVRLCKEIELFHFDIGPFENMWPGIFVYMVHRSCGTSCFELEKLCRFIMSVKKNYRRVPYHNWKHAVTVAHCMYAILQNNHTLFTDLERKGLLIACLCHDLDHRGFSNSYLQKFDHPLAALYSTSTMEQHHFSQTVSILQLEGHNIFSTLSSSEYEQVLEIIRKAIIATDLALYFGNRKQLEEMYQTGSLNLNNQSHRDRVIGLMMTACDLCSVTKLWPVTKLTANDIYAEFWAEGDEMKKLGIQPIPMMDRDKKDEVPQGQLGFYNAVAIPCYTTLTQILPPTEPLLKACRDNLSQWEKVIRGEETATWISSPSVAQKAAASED

| IC50 [µM] | SMILES |
| --- | --- |
| 0.00325 | Cc1ncc(C)n2nc(CCc3nc(N4CCCC4)nn3CC(F)F)nc12 [Example 110, 2-{2-[2-(2,2-Difluoro-ethyl)-5-pyrrolidin-1-yl-2H-[1,2,4]triazol-3-yl]-ethyl}-5,8-dimethyl-[1,2,4]triazolo[1,5-a]pyrazine] |
| 0.0082 | Cc1ncc(C)n2nc(CCc3nc(N4CCCC4)n(C4CC4)n3)nc12 [Example 123b, 2-[2-(1-Cyclopropyl-5-pyrrolidin-1-yl-1H-[1,2,4]triazol-3-yl)-ethyl]-5,8-dimethyl-[1,2,4]triazolo[1,5-a]pyrazine] |
| 0.00203 | Cc1ncc(C)n2nc(CCc3nc(N4CCCC4)nn3C3CC3)nc12 [Example 123a, 2-[2-(2-Cyclopropyl-5-pyrrolidin-1-yl-2H-[1,2,4]triazol-3-yl)-ethyl]-5,8-dimethyl-[1,2,4]triazolo[1,5-a]pyrazine] |
| 0.321 | Cc1ncc(C)n2nc(CC(C)c3nc(N4CCCC4)nn3C)nc12 (single isomer, unassigned; (-)) [Example 126, (−)-5,8-Dimethyl-2-(2-(1-methyl-3-(pyrrolidin-1-yl)-1H-1,2,4-triazol-5-yl)propyl)-[1,2,4]triazolo[1,5-a]pyrazine] |
| 0.00137 | Cc1c(Cl)cc(OCCN2CCOCC2)c2nc(CCc3nc(N4CCCC4)nn3C)nn12 [Example 121, 4-[2-[[6-Chloro-5-methyl-2-[2-(2-methyl-5-pyrrolidin-1-yl-1,2,4-triazol-3-yl)ethyl]-[1,2,4]triazolo[1,5-a]pyridin-8-yl]oxy]ethyl]morpholine] |
| 0.0274 | Cc1cnc(C)n2nc(CCc3nc(N4CCC[C@@H]4C(F)(F)F)nn3C)nc12 [Example 118, 5,8-Dimethyl-2-{2-[2-methyl-5-((R)-2-trifluoromethyl-pyrrolidin-1-yl)-2H-[1,2,4]triazol-3-yl]-ethyl}-[1,2,4]triazolo[1,5-c]pyrimidine] |
| 0.00051 | Cc1c(Cl)cc(OCC(F)(F)F)c2nc(CCc3nc(N4CCCC4)nn3C)nn12 [Example 98, 6-Chloro-5-methyl-2-[2-(2-methyl-5-pyrrolidin-1-yl-2H-[1,2,4]triazol-3-yl)-ethyl]-8-(2,2,2-trifluoro-ethoxy)-[1,2,4]triazolo[1,5-c]pyridine] |
| 0.0055 | Cc1ncc(C)n2nc(CCc3nc(N4CCC[C@@H]4C)nn3C)nc12 [Example 100, 5,8-Dimethyl-2-{2-[2-methyl-5-((S)-2-methyl-pyrrolidin-1-yl)-2H-[1,2,4]triazol-3-yl]-ethyl}-[1,2,4]triazolo[1,5-a]pyrazine] |
| 0.00023 | Cc1c(Cl)cc(OC(F)F)c2nc(CCc3nc(N4CCCC4)nn3C)nn12 [Example 95, 6-Chloro-8-difluoromethoxy-5-methyl-2-[2-(2-methyl-5-pyrrolidin-1-yl-2H-[1,2,4]triazol-3-yl)-ethyl]-[1,2,4]triazolo[1,5-c]pyridine] |
| 0.00132 | Cc1ncc(C)n2nc(CCc3nc(N4CCCC4)nn3CC3CC3)nc12 [Example 117a, 2-[2-(2-Cyclopropylmethyl-5-pyrrolidin-1-yl-2H-[1,2,4]triazol-3-yl)-ethyl]-5,8-dimethyl-[1,2,4]triazolo[1,5-a]pyrazine] |

The remaining lines, values behind:

| SMILES | IC50 [µM] |
| --- | --- |
| Cc1nc(C)n2nc(CCc3nc(N4CCCC4)nn3C)nc2c1Cl [Example 44, 8-Chloro-5,7-dimethyl-2-(2-(1-methyl-3-(pyrrolidin-1-yl)-1H-1,2,4-triazol-5-yl)ethyl)-[1,2,4]triazolo[1,5-c]pyrimidine] | 0.00941 |
| Cc1ncc(C)n2nc(CCc3nc(N4CC(C)C4)nn3C)nc12 [Example 89, 5,8-Dimethyl-2-{2-[2-methyl-5-(3-methyl-azetidin-1-yl)-2H-[1,2,4]triazol-3-yl]-ethyl}-[1,2,4]triazolo[1,5-a]pyrazine] | 0.108 |
| Cc1cc(Cl)c(C)n2nc([C@H]3C[C@@H]3c3nc(N4CCCC4)nn3C)nc12 [Example 46, 6-Chloro-5,8-dimethyl-2-[(1S,2S)-2-(2-methyl-5-pyrrolidin-1-yl-2H-[1,2,4]triazol-3-yl)-cyclopropyl]-[1,2,4]triazolo[1,5-a]pyridine] | 0.00498 |
| Cc1ncc(C)n2nc(CCc3nc(N4CC(F)(F)C4)nn3C)nc12 [Example 90, 2-{2-[5-(3,3-Difluoro-azetidin-1-yl)-2-methyl-2H-[1,2,4]triazol-3-yl]-ethyl}-5,8-dimethyl-[1,2,4]triazolo[1,5-a]pyrazine] | 0.475 |
| Cc1cc(Cl)c(C)n2nc(CCc3nc(N4CCCC4)n(C)n3)nc12 [Example 36, 6-Chloro-5,8-dimethyl-2-(2-(1-methyl-5-(pyrrolidin-1-yl)-1H-1,2,4-triazol-3-yl)ethyl)-[1,2,4]triazolo[1,5-a]pyridine] | 0.00058 |
| Cc1ncc(C)n2nc(CCc3nc(N4CCCC4=O)nn3C)nc12 [Example 87, 1-{5-[2-(5,8-Dimethyl-[1,2,4]triazolo[1,5-a]pyrazin-2-yl)-ethyl]-1-methyl-1H-[1,2,4]triazol-3-yl}-pyrrolidin-2-one] | 0.288 |
| Cc1ncc(C)n2nc(CCc3nc(N4CCCC4)n[nH]3)nc12 [Example 8, 5,8-Dimethyl-2-[2-(5-pyrrolidin-1-yl-2H-[1,2,4]triazol-3-yl)-ethyl]-[1,2,4]triazolo[1,5-a]pyrazine] | 0.00187 |
| Cc1ncc(C)n2nc(CCc3nc(N4CCCC4)nn3CC(F)(F)F)nc12 [Example 7, 5,8-Dimethyl-2-{2-[5-pyrrolidin-1-yl-2-(2,2,2-trifluoro-ethyl)-2H-[1,2,4]triazol-3-yl]-ethyl}-[1,2,4]triazolo[1,5-a]pyrazine] | 0.017 |
| Cc1cccc2nc(CCc3nc(N4CCCC4)nn3C)nn12 [Example 29, 5-Methyl-2-(2-(1-methyl-3-(pyrrolidin-1-yl)-1H-1,2,4-triazol-5-yl)ethyl)-[1,2,4]triazolo[1,5-a]pyridine] | 0.0559 |
| Cc1nc(C)c2nc(CCc3nc(N4CCCC4)nn3C)nn2c1C [Example 41, 5,6,8-Trimethyl-2-(2-(1-methyl-3-(pyrrolidin-1-yl)-1H-1,2,4-triazol-5-yl)ethyl)-[1,2,4]triazolo[1,5-a]pyrazine] | 0.0373 |
| Cc1cc(Cl)c(C)n2nc(/C=C/c3nc(N4CCCC4)n(C)n3)nc12 [Example 35, 6-Chloro-5,8-dimethyl-2-(2-(1-methyl-5-(pyrrolidin-1-yl)-1H-1,2,4-triazol-3-yl)vinyl)-[1,2,4]triazolo[1,5-a]pyridine] | 0.00015 |
| Cc1cc(C)n2nc(/C=C/c3nc(N(C)C4CC4)nn3C)nc2n1 [Example 30, Cyclopropyl-{5-[2-(5,7-dimethyl-[1,2,4]triazolo[1,5-a]pyrimidin-2-yl)-vinyl]-1-methyl-1H-[1,2,4]triazol-3-yl}-methyl-amine] | 0.0579 |
| Cc1c(C#N)cc(C#N)c2nc(CCc3nc(N4CCCC4)nn3C)nn12 [Example 78, 5-Methyl-2-[2-(2-methyl-5-pyrrolidin-1-yl-2H-[1,2,4]triazol-3-yl)-ethyl]-[1,2,4]triazolo[1,5-c]pyridine-6,8-dicarbonitrile] | 0.0306 |
| Cn1nc(N2CCCC2)nc1CCc1nc2cc(C(F)(F)F)ccn2n1 [Example 66, 2-(2-(1-Methyl-3-(pyrrolidin-1-yl)-1H-1,2,4-triazol-5-yl)ethyl)-7-(trifluoromethyl)-[1,2,4]triazolo[1,5-a]pyridine] | 0.331 |
| Cn1nc(N2CCCC2)nc1CCc1nc2ccc(C#N)cn2n1 [Example 53, 2-(2-(1-Methyl-3-(pyrrolidin-1-yl)-1H-1,2,4-triazol-5-yl)ethyl)-[1,2,4]triazolo[1,5-a]pyridine-6-carbonitrile] | 0.381 |
| CCN(C)c1nc(CCc2nc3c(C)ncc(C)n3n2)n(C)n1 [Example 23, {5-[2-(5,8-Dimethyl-[1,2,4]triazolo[1,5-a]pyrazin-2-yl)-ethyl]-1-methyl-1H-[1,2,4]triazol-3-yl}-ethyl-methyl-amine] | 0.103 |
| CCc1cc(C(F)(F)F)c2nc(CCc3nc(N4CCCC4)nn3C)nn2c1C [Example 86, 6-Ethyl-5-methyl-2-[2-(2-methyl-5-pyrrolidin-1-yl-2H-[1,2,4]triazol-3-yl)-ethyl]-8-trifluoromethyl-[1,2,4]triazolo[1,5-a]pyridine] | 0.00344 |
| CCn1nc(N2CCCC2)nc1CCc1nc2nc(C)cc(C)n2n1 [Example 4, 2-[2-(2-Ethyl-5-pyrrolidin-1-yl-2H-[1,2,4]triazol-3-yl)-ethyl]-5,7-dimethyl-[1,2,4]triazolo[1,5-a]pyrimidine] | 0.0109 |
| Cc1cc(C)n2nc(CCc3nc(N4CCCC4)nn3CC(F)(F)F)nc2n1 [Example 22, 5,7-Dimethyl-2-{2-[5-pyrrolidin-1-yl-2-(2,2,2-trifluoro-ethyl)-2H-[1,2,4]triazol-3-yl]-ethyl}-[1,2,4]triazolo[1,5-a]pyrimidine] | 0.0204 |
| Cc1cncc2nc(CCc3nc(N4CCCC4)nn3C)nn12 [Example 57, 5-Methyl-2-(2-(1-methyl-3-(pyrrolidin-1-yl)-1H-1,2,4-triazol-5-yl)ethyl)-[1,2,4]triazolo[1,5-a]pyrazine] | 0.251 |
| Cc1c(Cl)cc(C#N)c2nc(CCc3nc(N4CCCC4)nn3C)nn12 [Example 79, 6-Chloro-5-methyl-2-[2-(2-methyl-5-pyrrolidin-1-yl-2H-[1,2,4]triazol-3-yl)-ethyl]-[1,2,4]triazolo[1,5-c]pyridine-8-carbonitrile] | 0.00222 |
| Cc1c(Cl)cc(Br)c2nc(CCc3nc(N4CCCC4)nn3C)nn12 [Example 71, 8-Bromo-6-chloro-5-methyl-2-[2-(2-methyl-5-pyrrolidin-1-yl-2H-[1,2,4]triazol-3-yl)-ethyl]-[1,2,4]triazolo[1,5-a]pyridine] | 0.00101 |
| Cc1cc2nc(CCc3nc(N4CCCC4)nn3C)nn2c(C)n1 [Example 45, 5,7-Dimethyl-2-(2-(1-methyl-3-(pyrrolidin-1-yl)-1H-1,2,4-triazol-5-yl)ethyl)-[1,2,4]triazolo[1,5-c]pyrimidine] | 0.0588 |
| Cc1ccc2nc(CCc3nc(N4CCCC4)nn3C)nn2c1C [Example 40, 5,6-Dimethyl-2-(2-(1-methyl-3-(pyrrolidin-1-yl)-1H-1,2,4-triazol-5-yl)ethyl)-[1,2,4]triazolo[1,5-a]pyridine] | 0.0103 |
